Experiment [1] has as its target recombinant human p38α (Homo sapiens, UniProt Q16539). Description: Purified and activated recombinant human p38α HTRF assay. Conditions: 1 nM p38α, 50 μM ATP, GST-ATF2 substrate, read-out: p38a IC50. The experiment is classed as biochemical. Background: TR-FRET usually uses a lanthanide donor and a delayed reading to cut background.
Experiment [2] deals with production of IL-1β, IL-6, and TNF-α by PBMC activated with LPS. Description: Lipopolysaccharide-activated PBMC cytokine production assay. The experiment is classed as cell-based. Conditions: Homo sapiens, LPS 100 ng/mL, 18 hours, read-out: IC50 in PBMC cytokine production assay.
Experiment [3] concerns LPS-induced TNF-α production. Description: Inhibition of LPS-induced TNF-α production in rats. The experiment is classed as in vivo. Conditions: Rattus norvegicus; rats, compound PO 60 minutes prior to LPS IV; plasma TNF-α 90 minutes after LPS; read-out: ED50, inhibition of LPS-induced TNF-α production. Here is the method: Inhibition of LPS-Induced TNF-α Production Rats
LPS was diluted in PBS (100 μg per rat). Rats (n=6) were pretreated with vehicle or compound (0.03, 0.1, 0.3 and 1.0 mg/kg, PO) 60 minutes prior to the injection of LPS (100 μg per rat/IV, tail vein). Blood was harvested via decapitation 90 minutes following the administration of LPS. Blood was centrifuged at 12,000 rpm for 12 minutes to obtain plasma. Plasma samples were stored at −80 C. TNF-α levels were determined by ELISA for treatment groups that received LPS. Rat TNF-α levels were analyzed using rat TNF-α CytoSet kit from Biosource International. ELISA was completed according to the manufacturer's instructions. The concentration of TNF-α was interpolated from absorbance using the standard curve generated. For each individual sample, the TNF value from the dilution series that fell in the most linear portion of the standard curve was chosen and used for data analysis. The limit of quantitation of the ELISA was 1,000 pg/mL.

The test system of experiment [4] is TNF-α production by LPS-activated THP1 cells. The experiment in a line: Lipopolysaccharide-activated THP1 cell TNF production assay. The experiment is classed as cell-based. To be noted: Homo sapiens, THP-1; THP1 cells, LPS, 3 hours; read-out: IC50 in THP-1 cellular TNF production assay.
For experiment [5], the system named is collagen-induced arthritis. Description: Collagen-induced arthritis (CIA) model in rats. The experiment is classed as in vivo. To be noted: Rattus norvegicus, 168 h; rats, treated for 7 days from onset of arthritis; read-out: ED50 in rat CIA model. Here is the method:
Collagen-induced Arthritis (CIA) Model in Rats
Porcine type II collagen (10 mg) was dissolved in 0.1N acetic acid (5 mL) two days prior to use on a rotating plate in the refrigerator. Subsequently, collagen was emulsified 1:1 with Freund's incomplete adjuvant using an emulsification needle and glass syringes yielding a final concentration of 1 mg/mL.
Disease was induced in each animal by intradermal injection of emulsified collagen in IFA at 10 different sites (100 μL per site) over the back. The clinical onset of arthritis varied between days 10 to 12 as indicated by hind paw swelling and ambulatory difficulties. At onset (defined as Day 0), rats were randomized to treatment groups and therapy was initiated with drug or vehicle control as noted in table above. Rats were treated for 7 days and were sacrificed on Day 8.

Sequence of recombinant human p38α (Q16539 whole entry): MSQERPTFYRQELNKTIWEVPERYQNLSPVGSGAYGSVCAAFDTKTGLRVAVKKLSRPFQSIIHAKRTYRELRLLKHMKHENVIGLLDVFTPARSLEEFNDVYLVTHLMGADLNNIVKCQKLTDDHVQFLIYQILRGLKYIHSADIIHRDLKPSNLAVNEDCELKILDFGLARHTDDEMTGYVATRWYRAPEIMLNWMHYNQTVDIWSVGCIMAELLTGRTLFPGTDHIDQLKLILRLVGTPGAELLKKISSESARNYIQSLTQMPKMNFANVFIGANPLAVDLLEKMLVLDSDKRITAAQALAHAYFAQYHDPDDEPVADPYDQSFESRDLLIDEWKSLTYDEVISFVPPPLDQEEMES

The term IC50 denotes the midpoint of a concentration-inhibition curve. As usually defined, the ED50 is the midpoint of the dose-response relation. `Cc1c(F)cc(C(=O)NC2CC2)cc1-c1cc2cnnc(-c3ccccc3Cl)c2n(C)c1=O` [Example 14, 3-(8-(2-chlorophenyl)-1-methyl-2-oxo-1,2-dihydropyrido[2,3-d]pyridazin-3-yl)-N-cyclopropyl-5-fluoro-4-methylbenzamide]: the values for the IC50 in experiment [1], in experiment [2] and in experiment [4] were 0.0024 µM, not above 1 µM and not above 1 µM, respectively. Further, the values for the ED50 in experiment [3] and in experiment [5] were 0.02 mg/kg and 0.03 mg/kg, respectively.
